# Data taken from patent US10130684B2, “Oral dissolving films for insulin administration, for treating diabetes” (PHARMEDICA LTD., priority 2011, dated 2018).
# Test system: cultured human buccal tissue (EpiOral)
# Experiment: In vitro buccal tissue permeation of insulin solutions with permeation enhancers
# Assay type: in vitro ADME
# Source text: To enable in vitro study of insulin release, the films were applied onto EpiOral tissues (MatTek) according to the Drug Absorption Protocol (ORL-202 & ORL-606), incorporated herein by reference. EpiOral tissues consist of normal, human-derived epithelial cells, which have been cultured to form multilayered, highly differentiated models of the human buccal phenotypes. EpiOral is a multilayered tissue consisting of an organized basal layer and multiple non-cornified layers analog to native human buccal tissue.
# Insulin solution (0.60 mg/mL) was prepared in phosphate buffer (pH 6.8) solution (PBS). The above mentioned potential permeation enhancers were dissolved in the insulin solution to make solutions with desired ratios given in the table below:
# Briefly, experiments were conducted in 37° C. incubator with 0.9 mL of PBS in receptor. 3.5 mL of donor solutions (n=4 for each formulation) were placed in the donor compartments. […] were collected from the receptor at time periods of 0.5, 1.0, 2.0, 3.0, 4.0 and 6.0 h, and were later assayed using HPLC.
substance,measurement,setting,value
polyoxyethylene (35) lauryl ether [Brij 35],increase of insulin release compared to the control (without a permeation enhancer),Brij 35 as permeation enhancer,about 5 times
same,permeation effectiveness for insulin among the 3 tested compounds,"Brij 58, Brij 35, sodium glycocholate compared",highest permeation effectiveness
